{"source": "paper PMC5225172", "about": "(Cancer Chemotherapy and Pharmacology, 2016)", "key": {"[1]": {"system": "Japanese patients with advanced or refractory solid tumors", "assay": "Phase I safety and tolerability: adverse events (NCI CTCAE v4.03), DLT, MTD", "description": "Dosing on days 8 and 15 was permitted within a window of ±1 day if necessary, and dosing was considered missed if delayed by more than 1 day. Dose delays of up to 2 weeks were permitted for day 1 of cycle 2 or later, although for days 8 and 15 of cycle 2 and subsequent cycles, dosing within a window of ±3 days was permitted, except for in cycle 3, where dosing was to be administered within ±1 day of days 8 and 15.\nPatients were enrolled into cohort 1 and were evaluated for the occurrence of a dose-limiting toxicity (DLT) as defined by the National Cancer Institute Common Terminology Criteria for Adverse Events version 4.03. […] Completion of cycle 1 in cohort 1 constituted study completion.\nProtocol-defined DLTs included non-hematologic adverse events of grade ≥3. Hyperglycemia defined as a DLT was to be determined based on serum glucose values. Hematologic DLTs were defined as grade 4 neutropenia for ≥3 days, an absolute neutrophil count <1000 with fever ≥38.5 °C, and grade 4 thrombocytopenia. Patients with non-hematologic DLTs were to discontinue study treatment.\n(§1) Screening comprised: provision of written, informed consent; demographics; baseline characteristics; concomitant medications; safety assessments (adverse events [defined as any new finding not present in the patient’s medical history, or a worsening of a prior medical history finding], vital signs, laboratory tests, physical examination, 12-lead electrocardiogram, multigated acquisition scan, or echocardiogram); tumor measurements by computed tomography or magnetic resonance imaging; disease assessment as defined by RECIST version 1.1; ophthalmologic examination; chest computed tomography; and ECOG PS assessment. The following assessments were also performed on cycle 1, day 1: safety; ECOG PS assessment; concomitant medications; blood samples for PK analysis; serum samples for glucose analysis; serum insulin; urinalysis; serum ketones; and post-dose echocardiogram. Safety assessments, blood pressure measurements, blood sampling for PK analysis, and urinalysis were also performed on days 8 and 15 of cycle 1."}, "[2]": {"system": "advanced or refractory solid tumors", "assay": "Tumor response and disease assessment by RECIST version 1.1", "format": "in vivo, human", "text": "as §1\nAdditional PK samples were collected at either 72, 96, or 120 h following the start of infusion. PK samples were also collected on cycle 1, day 15 at 0, 0.5, 1, 1.5, 2, 3, 5, 8, 11, and 25 h following the start of infusion and on cycle 3, day 15 at 0, 0.5, 1, 1.5, 2, 3, 5, and 8 h following the start of infusion. Blood pressure monitoring was performed every 5 min before dosing on cycle 1, day 1 until the observation of two consecutive measurements <150 mmHg (systolic) and <90 mmHg (diastolic). […] Serum samples for glucose analysis were collected immediately before the first infusion and in parallel with PK sampling through to 49 h post-dose. Glucose samples taken at 25 h post-dose were to be fasting, where possible and if deemed safe. Capillary blood glucose testing was to be performed for hyperglycemia management as determined appropriate by the investigator; hyperglycemia was defined as capillary blood glucose >200 mg/dL and was to be treated with short-acting insulin. Tumor measurement and disease assessment according to RECIST version 1.1 were conducted every two cycles by the investigator."}, "[3]": {"system": "class I PI3K", "details": "compared with the p110β and p110γ isoforms; cited from earlier work"}, "[4]": {"system": "patients with advanced solid tumors and non-Hodgkin's lymphomas", "details": "cited from earlier work"}}, "note": "“Also recorded” adds a separate entry of the source.", "data": [{"smiles": "COc1c(OCCCN2CCOCC2)ccc2c1N=C(NC(=O)c1cnc(N)nc1)N1CCN=C21", "note": "[copanlisib, Copanlisib]", "values": [{"measurement": "Relationship to study drug: grade 3 Diarrhea", "setting": "[1]; in vivo", "result": "Possibly related"}, {"measurement": "Relationship to study drug: grade 3 Hepatobiliary disorder", "setting": "[1]; in vivo", "result": "Not likely to be related"}, {"measurement": "Relationship to study drug: grade 3 Hyperglycemia", "setting": "[1]; in vivo", "result": "Possibly related"}, {"measurement": "Relationship to study drug: grade 3 Increased ALP", "setting": "[1]; in vivo", "result": "Not likely to be related"}, {"measurement": "Relationship to study drug: grade 3 Increased ALT", "setting": "[1]; in vivo", "result": "Not likely to be related"}, {"measurement": "Relationship to study drug: grade 3 Insomnia", "setting": "[1]; in vivo", "result": "Not likely to be related"}, {"measurement": "Relationship to study drug: grade 3 Lymphocytopenia", "setting": "[1]; in vivo", "result": "Possibly related"}, {"measurement": "Relationship to study drug: grade 3 Stroke", "setting": "[1]; in vivo", "result": "Not likely to be related"}, {"measurement": "Relationship to study drug: grade 4 Increased AST", "setting": "[1]; in vivo", "result": "Not likely to be related"}, {"measurement": "Grade 5 adverse events", "setting": "[1]; irrespective of causality", "result": "No grade 5 adverse events were reported"}, {"measurement": "Best overall response: Complete response", "setting": "[2]; Cohort 1, 0.4 mg/kg (n = 3)", "result": "0 n (%)"}, {"measurement": "Best overall response: Partial response", "setting": "[2]; Cohort 1, 0.4 mg/kg (n = 3)", "result": "0 n (%)"}, {"measurement": "Best overall response: Progressive disease (by proven measurement)", "setting": "[2]; Cohort 1, 0.4 mg/kg (n = 3)", "result": "2 (66.7) n (%)"}, {"measurement": "Best overall response: Stable disease", "setting": "[2]; Cohort 1, 0.4 mg/kg (n = 3)", "result": "1 (33.3) n (%)"}, {"measurement": "Overall disease control rate (complete response + partial response + stable disease)", "setting": "[2]; Cohort 1, 0.4 mg/kg (n = 3)", "result": "1 (33.3) n (%)"}, {"measurement": "Overall response rate (complete response + partial response)", "setting": "[2]; Cohort 1, 0.4 mg/kg (n = 3)", "result": "0 n (%)"}, {"measurement": "Best overall response: Complete response", "setting": "[2]; Cohort 2, 0.8 mg/kg (n = 7)", "result": "0 n (%)"}, {"measurement": "Best overall response: Partial response", "setting": "[2]; Cohort 2, 0.8 mg/kg (n = 7)", "result": "0 n (%)"}, {"measurement": "Best overall response: Progressive disease (by proven measurement)", "setting": "[2]; Cohort 2, 0.8 mg/kg (n = 7)", "result": "4 (57.1) n (%)"}, {"measurement": "Best overall response: Stable disease", "setting": "[2]; Cohort 2, 0.8 mg/kg (n = 7)", "result": "3 (42.9) n (%)"}, {"measurement": "Overall disease control rate (complete response + partial response + stable disease)", "setting": "[2]; Cohort 2, 0.8 mg/kg (n = 7)", "result": "3 (42.9) n (%)"}, {"measurement": "Overall response rate (complete response + partial response)", "setting": "[2]; Cohort 2, 0.8 mg/kg (n = 7)", "result": "0 n (%)"}, {"measurement": "Best overall response: Complete response", "setting": "[2]; Total (n = 10)", "result": "0 n (%)"}, {"measurement": "Best overall response: Partial response", "setting": "[2]; Total (n = 10)", "result": "0 n (%)"}, {"measurement": "Best overall response: Progressive disease (by proven measurement)", "setting": "[2]; Total (n = 10)", "result": "6 (60.0) n (%)"}, {"measurement": "Best overall response: Stable disease", "setting": "[2]; Total (n = 10)", "result": "4 (40.0) n (%)"}, {"measurement": "Overall disease control rate (complete response + partial response + stable disease)", "setting": "[2]; Total (n = 10)", "result": "4 (40.0) n (%)"}, {"measurement": "Overall response rate (complete response + partial response)", "setting": "[2]; Total (n = 10)", "result": "0 n (%)"}, {"measurement": "Disease control rate", "setting": "[2]; cohort 1, 0.4 mg/kg", "result": 33.3, "unit": "%"}, {"measurement": "Median time to progression", "setting": "[2]; cohort 1, 0.4 mg/kg, 95% CI 50–77", "result": 52, "unit": "days"}, {"measurement": "Time to progression, single patient", "setting": "[2]; cohort 1, stable disease as best response", "result": 77, "unit": "days"}, {"measurement": "Disease control rate", "setting": "[2]; cohort 2, 0.8 mg/kg", "result": 42.9, "unit": "%"}, {"measurement": "Median time to progression", "setting": "[2]; cohort 2, 0.8 mg/kg, 95% CI 21–not estimated", "result": 53, "unit": "days"}, {"measurement": "Time to progression, single patient (censored)", "setting": "[2]; cohort 2, gastrointestinal stromal tumor, stable disease, discontinued for thrombocytopenia", "result": 176, "unit": "days"}, {"measurement": "Time to progression, single patient", "setting": "[2]; cohort 2, stable disease as best response", "result": 82, "unit": "days"}, {"measurement": "Time to progression, single patient (censored)", "setting": "[2]; cohort 2, stable disease, discontinued because of grade 3 diarrhea", "result": 50, "unit": "days"}, {"measurement": "Rate of progression-free survival", "setting": "[2]; overall, after 1 month", "result": "0.80 (95% CI 0.41–0.95)"}, {"measurement": "Rate of progression-free survival", "setting": "[2]; overall, after 2 months", "result": "0.35 (95% CI 0.08–0.64)"}, {"measurement": "Rate of progression-free survival", "setting": "[2]; overall, after 3 months", "result": "0.12 (95% CI 0.01–0.40)"}, {"measurement": "Median time to progression", "setting": "[2]; overall, 95% CI 21–82", "result": 52, "unit": "days"}, {"measurement": "Complete or partial response", "setting": "[2]; ten patients", "result": "No patients achieved a complete or partial response; also recorded: none experienced a complete or partial response"}, {"measurement": "Disease control rate", "setting": "[2]; ten patients", "result": 40, "unit": "%"}, {"measurement": "Progressive disease as best response", "setting": "[2]; ten patients", "result": 60.0, "unit": "%"}, {"measurement": "Stable disease as best response", "setting": "[2]; ten patients", "result": 40.0, "unit": "%"}, {"measurement": "PI3K isoform preference", "setting": "[3]", "result": "preferential activity against the p110α and p110δ isoforms of PI3K"}, {"measurement": "Grade 3 hypertension", "setting": "[4]; Patnaik et al. study", "result": 19, "unit": "%"}, {"measurement": "Incidence of all-grade hypertension", "setting": "[4]; Patnaik et al. study", "result": 30, "unit": "%"}, {"measurement": "Maximum tolerated dose (MTD)", "setting": "[4]; first-in-human Phase I study, non-Japanese patients, once weekly", "result": 0.8, "unit": "mg/kg"}, {"measurement": "Patients with grade ≥3 elevated aminotransferase levels", "setting": "[4]; first-in-human study", "result": "< 10", "unit": "%"}, {"measurement": "Time of hyperglycemia peak after the start of infusion", "setting": "[4]; first-in-human study", "result": "5 to 8", "unit": "h"}, {"measurement": "Time of hypertension peak after the start of infusion", "setting": "[4]; first-in-human study", "result": "1 to 2", "unit": "h"}]}]}
